# In BindingDB's records for doi:10.1021/jm4017448 (China Pharmaceutical University, 2013):
# Molecular target: Glucagon-like peptide 1 receptor (Homo sapiens, UniProt P43220)
# Assay: Activation of human GLP-1 receptor overexpressed in HEK293 cells assessed as cAMP accumulation after 20 mins by HTRF assay
# Chain of Glucagon-like peptide 1 receptor (P43220 whole entry): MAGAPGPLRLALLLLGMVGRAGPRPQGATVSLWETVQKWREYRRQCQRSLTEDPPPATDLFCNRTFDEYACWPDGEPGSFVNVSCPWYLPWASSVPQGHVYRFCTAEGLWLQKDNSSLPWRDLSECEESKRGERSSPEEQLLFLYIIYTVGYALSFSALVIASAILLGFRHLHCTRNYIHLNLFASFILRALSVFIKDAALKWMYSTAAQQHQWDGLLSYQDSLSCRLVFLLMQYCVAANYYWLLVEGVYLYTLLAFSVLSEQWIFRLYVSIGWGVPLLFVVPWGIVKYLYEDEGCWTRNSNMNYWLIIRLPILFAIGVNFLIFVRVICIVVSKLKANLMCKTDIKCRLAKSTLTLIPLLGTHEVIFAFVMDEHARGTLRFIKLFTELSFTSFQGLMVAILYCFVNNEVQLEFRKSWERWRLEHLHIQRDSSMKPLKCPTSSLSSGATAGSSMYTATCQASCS
row,EC50 [pM],SMILES
1,3,CC[C@H](C)[C@H](NC(=O)[C@H](Cc1ccccc1)NC(=O)[C@H](CCC(=O)O)NC(=O)[C@H](CCCCN)NC(=O)[C@H](C)NC(=O)[C@H](C)NC(=O)[C@H](CCC(N)=O)NC(=O)CNC(=O)[C@H](CCC(=O)O)NC(=O)[C@H](CC(C)C)NC(=O)[C@H](Cc1ccc(O)cc1)NC(=O)[C@H](CO)NC(=O)[C@H](CO)NC(=O)[C@@H](NC(=O)[C@H](CC(=O)O)NC(=O)[C@H](CO)NC(=O)[C@@H](NC(=O)[C@H](Cc1ccccc1)NC(=O)[C@@H](NC(=O)CNC(=O)[C@H](CCC(=O)O)NC(=O)CNC(=O)[C@@H](N)Cc1cnc[nH]1)[C@@H](C)O)[C@@H](C)O)C(C)C)C(=O)N[C@@H](C)C(=O)N[C@@H](Cc1c[nH]c2ccccc12)C(=O)N[C@@H](CC(C)C)C(=O)N[C@H](C(=O)N[C@@H](CCCCN)C(=O)NCC(=O)N[C@@H](CCCNC(=N)N)C(=O)N[C@@H](CSC1CC(=O)N(CCCCCC(=O)Nc2ccc(C(c3c(O)c4ccccc4oc3=O)c3c(O)c4ccccc4oc3=O)cc2)C1=O)C(N)=O)C(C)C (some centres not stated)
2,3,CC[C@H](C)[C@H](NC(=O)[C@H](Cc1ccccc1)NC(=O)[C@H](CCC(=O)O)NC(=O)[C@H](CS)NC(=O)[C@H](C)NC(=O)[C@H](C)NC(=O)[C@H](CCC(N)=O)NC(=O)CNC(=O)[C@H](CCC(=O)O)NC(=O)[C@H](CC(C)C)NC(=O)[C@H](Cc1ccc(O)cc1)NC(=O)[C@H](CO)NC(=O)[C@H](CO)NC(=O)[C@@H](NC(=O)[C@H](CC(=O)O)NC(=O)[C@H](CO)NC(=O)[C@@H](NC(=O)[C@H](Cc1ccccc1)NC(=O)[C@@H](NC(=O)CNC(=O)[C@H](CCC(=O)O)NC(=O)CNC(=O)[C@@H](N)Cc1cnc[nH]1)[C@@H](C)O)[C@@H](C)O)C(C)C)C(=O)N[C@@H](C)C(=O)N[C@@H](Cc1c[nH]c2ccccc12)C(=O)N[C@@H](CC(C)C)C(=O)N[C@H](C(=O)N[C@@H](CCCCN)C(=O)NCC(=O)N[C@@H](CCCNC(=N)N)C(N)=O)C(C)C
